# Results reported in ChEMBL document CHEMBL5143530 (Bioorg Med Chem Lett, 2022).
# Calls of active or inactive are those of the source. No cut-off for these calls is given here.
# Assays:
# PC-3 = assay: Antiproliferative activity against human PC-3 cells assessed as reduction in cell viability at 1 to 100 uM incubated for 72 hrs; type: functional, cell-based; conditions: dose 1-100 µM
# LNCaP [1] = assay: Antiproliferative activity against human LNCAP cells assessed as reduction in cell viability at 10 uM incubated for 72 hrs; type: functional, cell-based
# LNCaP [2] = assay: Antiproliferative activity against human LNCAP cells assessed as reduction in cell viability at 100 uM incubated for 72 hrs; type: functional, cell-based
# [3] = Inhibition of purified human HDAC2 using Ac-Leu-Gly-(e-Ac)Lys-AMC by fluorometric HDAC assay
# Androgen receptor = target: T1, Androgen receptor (Homo sapiens, UniProt P10275); assay: Anti-androgenic activity at androgen receptor (unknown origin) expressed in HEK293 cells by BRET assay; type: cell-based
# T1 sequence (P10275 whole entry): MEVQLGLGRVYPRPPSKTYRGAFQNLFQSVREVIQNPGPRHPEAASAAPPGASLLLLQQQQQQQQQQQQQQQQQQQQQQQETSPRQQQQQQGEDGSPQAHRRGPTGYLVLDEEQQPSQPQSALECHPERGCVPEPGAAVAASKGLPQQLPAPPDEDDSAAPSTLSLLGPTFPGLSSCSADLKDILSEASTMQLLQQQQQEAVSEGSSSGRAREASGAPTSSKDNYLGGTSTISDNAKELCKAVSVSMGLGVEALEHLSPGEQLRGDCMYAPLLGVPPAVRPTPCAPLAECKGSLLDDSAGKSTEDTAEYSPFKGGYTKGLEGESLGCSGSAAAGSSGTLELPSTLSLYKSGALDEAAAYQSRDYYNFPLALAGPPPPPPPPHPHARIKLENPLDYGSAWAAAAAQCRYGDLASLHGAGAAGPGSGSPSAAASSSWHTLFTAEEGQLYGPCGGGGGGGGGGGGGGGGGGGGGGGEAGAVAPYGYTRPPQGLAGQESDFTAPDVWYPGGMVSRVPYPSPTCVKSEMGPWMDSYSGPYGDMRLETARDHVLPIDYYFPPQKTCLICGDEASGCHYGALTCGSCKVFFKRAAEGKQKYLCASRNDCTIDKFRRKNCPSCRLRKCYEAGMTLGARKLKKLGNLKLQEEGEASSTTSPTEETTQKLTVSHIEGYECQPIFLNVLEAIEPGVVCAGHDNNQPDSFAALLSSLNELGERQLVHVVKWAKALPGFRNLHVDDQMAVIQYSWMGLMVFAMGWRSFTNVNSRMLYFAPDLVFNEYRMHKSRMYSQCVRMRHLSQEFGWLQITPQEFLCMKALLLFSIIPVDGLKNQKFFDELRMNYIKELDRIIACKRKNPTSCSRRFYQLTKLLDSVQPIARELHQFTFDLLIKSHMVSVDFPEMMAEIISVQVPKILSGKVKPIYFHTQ
# [4] = Antiproliferative activity against human BHPrS cells assessed as reduction in cell viability at 1 to 100 uM incubated for 72 hrs; type: toxicity, cell-based; conditions: dose 1-100 µM
# BPH-1 = assay: Antiproliferative activity against human BPH-1 cells assessed as reduction in cell viability at 1 to 100 uM incubated for 72 hrs; type: functional, cell-based; conditions: dose 1-100 µM
# Histone deacetylase 1 [5] = target: T2, Histone deacetylase 1 (Homo sapiens, UniProt Q13547); assay: Inhibition of purified human HDAC1 using Ac-Leu-Gly-(e-Ac)Lys-AMC by fluorometric HDAC assay
# T2 sequence (Q13547 whole entry): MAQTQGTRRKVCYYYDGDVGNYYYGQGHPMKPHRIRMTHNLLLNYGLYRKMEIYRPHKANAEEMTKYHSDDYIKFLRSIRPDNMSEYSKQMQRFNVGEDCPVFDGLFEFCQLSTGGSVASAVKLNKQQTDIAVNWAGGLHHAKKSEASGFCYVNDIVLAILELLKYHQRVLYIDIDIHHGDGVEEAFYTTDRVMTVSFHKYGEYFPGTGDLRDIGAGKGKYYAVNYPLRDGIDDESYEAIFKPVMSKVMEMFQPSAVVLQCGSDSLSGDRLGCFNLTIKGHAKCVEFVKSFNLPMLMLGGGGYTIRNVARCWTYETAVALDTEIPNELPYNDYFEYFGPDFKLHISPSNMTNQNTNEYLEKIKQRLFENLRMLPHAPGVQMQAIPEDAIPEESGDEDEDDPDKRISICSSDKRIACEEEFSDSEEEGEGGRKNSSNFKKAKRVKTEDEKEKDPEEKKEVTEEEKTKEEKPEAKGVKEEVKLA
# LNCaP [6] = assay: Antiproliferative activity against human LNCAP cells assessed as reduction in cell viability at 100 uM incubated for 5 days; type: functional, cell-based; conditions: time 5.0 day
# Histone deacetylase 1 [7] = target: T2, Histone deacetylase 1; assay: Inhibition of purified human HDAC1 using Ac-Leu-Gly-(e-Ac)Lys-AMC pre-incubated for 18 hrs by fluorometric HDAC assay
# [8] = target: Class 1 histone deacetylase (Homo sapiens) (UniProt Q13547+O15379+Q92769+Q9BY41); assay: Inhibition of type I nuclear HDACs in human LNCaP cells assessed as induction of histone H3 and H4 acetylation at 10 uM by Western blotting; type: cell-based
# Sequence of Class 1 histone deacetylase (Homo sapiens) (O15379 whole entry, looked up): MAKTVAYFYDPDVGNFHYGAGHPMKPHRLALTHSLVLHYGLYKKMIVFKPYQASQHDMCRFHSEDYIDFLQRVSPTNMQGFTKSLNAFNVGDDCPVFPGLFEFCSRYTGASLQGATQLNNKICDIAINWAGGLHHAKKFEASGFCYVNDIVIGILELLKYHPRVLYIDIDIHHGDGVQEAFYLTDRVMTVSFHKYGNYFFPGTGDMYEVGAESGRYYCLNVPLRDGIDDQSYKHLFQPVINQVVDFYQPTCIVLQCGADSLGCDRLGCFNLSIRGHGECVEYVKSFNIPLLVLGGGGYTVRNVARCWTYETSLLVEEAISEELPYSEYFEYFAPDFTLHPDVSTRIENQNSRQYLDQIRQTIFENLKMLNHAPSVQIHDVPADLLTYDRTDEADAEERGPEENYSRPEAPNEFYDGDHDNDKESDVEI
# Sequence of Class 1 histone deacetylase (Homo sapiens) (Q13547 whole entry, looked up): as the sequence (Q13547 whole entry) above
# Sequence of Class 1 histone deacetylase (Homo sapiens) (Q92769 whole entry, looked up): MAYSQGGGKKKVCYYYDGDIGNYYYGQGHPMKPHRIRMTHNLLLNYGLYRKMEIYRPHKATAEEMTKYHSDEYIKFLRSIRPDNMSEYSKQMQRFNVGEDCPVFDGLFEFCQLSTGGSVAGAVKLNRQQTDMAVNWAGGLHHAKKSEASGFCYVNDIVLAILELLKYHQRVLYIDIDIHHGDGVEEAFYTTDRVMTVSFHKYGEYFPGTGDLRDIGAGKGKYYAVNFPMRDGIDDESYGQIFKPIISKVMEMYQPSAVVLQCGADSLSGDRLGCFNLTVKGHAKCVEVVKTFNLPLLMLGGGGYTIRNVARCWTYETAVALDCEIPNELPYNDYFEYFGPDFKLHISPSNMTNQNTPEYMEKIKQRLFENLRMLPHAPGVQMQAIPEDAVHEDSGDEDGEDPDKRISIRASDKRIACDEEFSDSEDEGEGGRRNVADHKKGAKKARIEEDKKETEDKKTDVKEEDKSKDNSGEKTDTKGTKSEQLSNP
# Sequence of Class 1 histone deacetylase (Homo sapiens) (Q9BY41 whole entry, looked up): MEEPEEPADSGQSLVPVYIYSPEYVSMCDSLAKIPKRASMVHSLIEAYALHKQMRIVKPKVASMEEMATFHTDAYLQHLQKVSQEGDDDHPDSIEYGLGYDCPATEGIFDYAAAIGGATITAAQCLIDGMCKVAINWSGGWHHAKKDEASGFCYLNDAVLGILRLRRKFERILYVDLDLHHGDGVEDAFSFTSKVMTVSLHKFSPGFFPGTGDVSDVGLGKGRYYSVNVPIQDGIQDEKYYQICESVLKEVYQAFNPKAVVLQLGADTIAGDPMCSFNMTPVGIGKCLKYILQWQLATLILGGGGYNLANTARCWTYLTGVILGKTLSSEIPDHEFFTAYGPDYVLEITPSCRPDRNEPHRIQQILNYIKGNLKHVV
# LNCaP [9] = assay: Antiproliferative activity against human LNCAP cells assessed as reduction in cell viability at 10 uM incubated for 5 days; type: functional, cell-based; conditions: time 5.0 day
SMILES,IC50 (Androgen receptor) [µM],IC50 (Histone deacetylase 1 [5]) [µM],Activity (LNCaP [6]),also measured
CC1(C)C(=O)N(c2ccc(C#N)c(C(F)(F)F)c2)C(=S)N1Cc1ccc(C(=O)Nc2ccccc2N)cc1,0.28,1.04,,Activity (PC-3): Active; Activity (LNCaP [1]): Active; Activity (LNCaP [2]): Active; IC50 [3]: 1.6 µM; Activity [4]: Non-Toxic; Activity (BPH-1): Active
CC1(C)C(=O)N(c2ccc(C#N)c(C(F)(F)F)c2)C(=S)N1c1ccc(C(=O)Nc2ccccc2N)cn1,2.34,6.51,,
CC1(C)C(=O)N(c2ccc(C#N)c(C(F)(F)F)c2)C(=S)N1CCCCCCC(=O)NO,0.39,0.99,Active,
CC1(C)C(=O)N(c2ccc(C#N)c(C(F)(F)F)c2)C(=S)N1C12CC(CC(=O)Nc3ccccc3N)(C1)C2,0.19,> 1000,,
CC1(C)C(=O)N(c2ccc(C#N)c(C(F)(F)F)c2)C(=S)N1CCCCCC(=O)NO,1.45,1.33,Active,
CC1(C)C(=O)N(c2ccc(C#N)c(C(F)(F)F)c2)C(=S)N1c1ccc(C(=O)Nc2cc(-c3cccs3)ccc2N)cn1,> 10,11.1,,
CC1(C)C(=O)N(c2ccc(C#N)c(C(F)(F)F)c2)C(=S)N1c1ccc(C(=O)Nc2ccccc2N)c(F)c1,1.7,2.86,,IC50 [3]: 2.5 µM
CC1(C)C(=O)N(c2ccc(C#N)c(C(F)(F)F)c2)C(=S)N1CCCCC(=O)NO,1.17,3.09,Active,
CC1(C)C(=O)N(c2ccc(C#N)c(C(F)(F)F)c2)C(=S)N1c1ccc(C(=O)Nc2cc(-c3ccccc3)ccc2N)nc1,> 10,> 1000,,
CC1(C)C(=O)N(c2ccc(C#N)c(C(F)(F)F)c2)C(=S)N1c1ccc(C(=O)Nc2ccccc2N)nc1,0.75,5.58,,
Nc1ccccc1NC(=O)c1ccc(CNC(=O)OCc2cccnc2)cc1 [ENTINOSTAT],> 10,,Active,
CC1(C)C(=O)N(c2ccc(C#N)c(C(F)(F)F)c2)C(=S)N1CCCC(=O)NO,0.39,44.9,Active,
CC1(C)C(=O)N(c2ccc(C#N)c(C(F)(F)F)c2)C(=S)N1c1ccc(C(=O)Nc2cc(-c3ccccc3)ccc2N)cn1,> 10,2.39,,
CC1(C)C(=O)N(c2ccc(C#N)c(C(F)(F)F)c2)C(=S)N1c1ccc(C(=O)Nc2cc(-c3cccs3)ccc2N)nc1,> 10,3.67,,
CC1(C)C(=O)N(c2ccc(C#N)c(C(F)(F)F)c2)C(=S)N1c1ccc(C(=O)Nc2cc(-c3ccccc3)ccc2N)cc1,> 10,,,IC50 (Histone deacetylase 1 [7]): 5.96 µM
CC1(C)C(=O)N(c2ccc(C#N)c(C(F)(F)F)c2)C(=S)N1c1ccc(C(=O)Nc2ccccc2N)cc1,0.98,1.33,Active,Activity (PC-3): Active; inhibition [8]: Active; Activity (LNCaP [1]): Active; Activity (LNCaP [2]): Active; Activity [4]: Non-Toxic; Activity (BPH-1): Active; Activity (LNCaP [9]): Active
